Columns and labels:
Assay in all cases: area under concentration-response curve (viability) (AUC (a.u.)); higher = less active
Details in all cases: 48 h
[1] = system: CU-ACC1
In short: (§1)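 After 48 h of treatment with 23 nL of each library compound at 11 concentrations, three adrenocortical carcinoma cell lines in 1,536-well plates (500–1,000 cells/well, 5 µL medium) were given CellTiter-Glo for 15 minutes at room temperature. Luminescence was then read and normalised per plate to vehicle and empty-well controls. AC50 and area under the curve were drawn from fitted concentration-response curves of inhibitory or non-responding classes only.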

[2] = system: CU-ACC2
In short: as §1

[3] = system: NCI-H295R
In short: as §1

SMILES	area under concentration-response curve [1]	area under concentration-response curve [2]	area under concentration-response curve [3]
CN[C@H](CC(C)C)C(=O)N[C@H]1C(=O)N[C@@H](CC(N)=O)C(=O)N[C@H]2C(=O)N[C@H]3C(=O)N[C@H](C(=O)N[C@H](C(=O)O)c4cc(O)cc(O)c4-c4cc3ccc4O)[C@H](O)c3ccc(c(Cl)c3)Oc3cc2cc(c3O[C@@H]2O[C@H](CO)[C@@H](O)[C@H](O)[C@H]2O[C@H]2C[C@](C)(N)[C@H](O)[C@H](C)O2)Oc2ccc(cc2Cl)[C@H]1O	589	676	614
CC(=O)C1CCC2C3CC\C4=C\C(=O)CCC4(C)C3CCC12C (stereo unspecified)	548	645	607
N=C(N)NC(=O)c1nc(Cl)c(N)nc1N	455	658	615
CC[C@H]1OC(=O)[C@H](C)C(=O)[C@H](C)[C@@H](O[C@H]2O[C@H](C)C[C@H](N(C)C)[C@H]2O)[C@](C)(OC)C[C@@H](C)C(=O)[C@H](C)[C@H]2N(CCCCn3cnc(-c4cccnc4)c3)C(=O)O[C@]12C	436	452	419
Clc1ccc2ncc(-c3cccc(NC4CNC4)n3)n2c1	522	644	576
O=C(/C=C/c1ccc(/C=C/C(=O)Nc2ccc(C3=NCCN3)cc2)cc1)Nc1ccc(C2=NCCN2)cc1	635	610	613
OC[C@H]1O[C@H]([C@H](O)[C@@H]1O)N2/C=C\C=N/C2=O	525	609	583
CC1=CC=C2N=C(NC(=O)CS\C3=N\C4=C(\SCC4)C(=O)N3C5=CC=CC=C5)SC2=C1	538	633	558
CN(C)CCc1c[nH]c2ccc(C[S+](=O)([O-])N3CCCC3)cc12	490	612	513
COc1cc([C@@H](CC(=O)O)c2ccc(C)c(CN3C[C@@H](C)Oc4ccccc4[S+]3(=O)[O-])c2)cc2nnn(C)c12	341	295	348
CN[C@@H](C)C(=O)N[C@H](C(=O)N1CCC[C@H]1c1nc(C(=O)c2ccc(F)cc2)cs1)C1CCCCC1	525	571	546
CO[C@H]1CC[C@H](N(c2cc(C3=CCCCC3)sc2C(=O)[O-])C(=O)[C@H]2CC[C@H](C)CC2)CC1	514	613	573
CN(C(=O)CNC(=O)/C=C/c1cccc(Cl)c1)C1CC[S+](=O)([O-])CC1 (stereo unspecified)	479	540	465
COc1ccc(C2CNC(=O)C2)cc1OC1CCCC1 (stereo unspecified)	451	538	501
CCCCCCCCCCCCCCCC(=O)O[C@@H]1[C@@H](O)[C@@H](O)[C@@H]([C@H](NC(=O)[C@@H]2C[C@@H](CCC)CN2C)[C@H](C)Cl)O[C@@H]1SC.Cl	489	583	513
C[N]1C2=C(SC(=C2)[S+](C)[O-])C\3=C1C(=O)N(CC4=CC(=CC=C4)N)\N=C3 (stereo unspecified)	363	511	468
CCCCCN(C)CCC(O)(P(=O)([O-])O)P(=O)(O)O	612	590	611
Cc1[nH]c(/C=C2\C(=O)Nc3ccc([S+](=O)([O-])Cc4c(Cl)cccc4Cl)cc32)c(C)c1C(=O)N1CCC[C@@H]1CN1CCCC1	334	351	376
NC(=O)c1cnccn1	346	301	382

SMILES	area under concentration-response curve [1]	area under concentration-response curve [2]	area under concentration-response curve [3]
CC(C)C[C@@H](N)[C@H](O)C(=O)N[C@H](C(=O)N[C@H](C(=O)N[C@@H](CC(=O)O)C(=O)O)C(C)C)C(C)C	544	530	549
CC1(C)O[C@@H]2C[C@H]3[C@@H]4CCC/5=C/C(=O)/C=C\[C@]5(C)[C@@]4(F)[C@@H](O)C[C@]3(C)[C@@]2(O1)C(=O)CO	551	517	548
C=CC(=O)N1CCC(CNc2ncnc(N)c2-c2ccc(Oc3ccccc3)cc2)CC1	550	615	566
CN1[C@@H]2CCC[C@H]1CC(NC(=O)c1nn(C)c3ccccc13)C2 (stereo partly specified)	511	584	490
CNC(=O)c1c(C)oc2cc(Oc3ncnc4cc(OC)c(OC)cc34)ccc12	535	624	593
Cc1cnc(-c2cc(N3CCN(C(=O)CC[S+](C)(=O)[O-])CC3)ncc2Cl)c(C)c1	536	534	551
CC(C)NC(=O)N1CC[C@@H](C1)NC/2=N/C3=C(C=CC(=C3)F)N(CC(F)F)C4=C2C=C(Cl)C=C4	580	656	580
C[C@@H]1COCCN1C\2=C\C(=O)N\3CC[C@H](N(CC4=CN=CC(=C4)Cl)C3=N2)C(F)(F)F	550	661	590
CC(=O)O[C@@]1(CC[C@H]2[C@@H]3\C=C(C)/C4=C/C(=O)CC[C@]4(C)[C@H]3CC[C@]12C)C(C)=O	471	553	492
CCNCc1nc2c(N)nc3ccccc3c2n1CC(C)(C)O	500	556	516
Cc1ccc(-c2ncn(-c3ccc(Nc4nccc(-c5cccc(N6CCOCC6)c5)n4)cc3)n2)cn1	370	543	549
O=c1cc(O)c(Cl)c[nH]1	558	641	586
C[C@]12CCC3[C@@H](CC[C@H]4NC(=O)\C=C/[C@]34C)[C@@H]1CC[C@@H]2C(=O)NC5=CC(=CC=C5C(F)(F)F)C(F)(F)F (stereo partly specified)	557	645	578
C[C@]12CC[C@@H]3c4ccc(O)cc4CC[C@H]3[C@@H]1[C@@H](O)[C@@H](O)[C@@H]2O	494	565	520
CN(N=O)C(=O)N[C@@H]1[C@@H](O)[C@H](O)[C@@H](CO)O[C@@H]1O	502	590	548
O=C(Nc1ccccc1)Nc1ccc(-c2ccc(C(=O)[C@@H]3CCC[C@H]3C(=O)O)cc2)cc1	481	472	441
CC(C(=O)O)c1ccc(-c2ccccc2)c(F)c1 (stereo unspecified)	469	479	470
O=C([C@@H](Cc1cccc(C(F)(F)F)c1)N[S+](=O)([O-])c1cc(F)c2c(c1)CCNC2)N1CCCC1	528	515	535

From the supplement of paper PMC10949913
